One series relates to H7N9 pseudovirus. To be noted: 48 h.
The next series concerns H5N1 pseudovirus. The following applies: 48 h.
The test system of a further series is SIVPBJ pseudovirus. To be noted: 48 h.
Another series deals with primary HIV-1 Envs. The experiment in a line: DSP-based cell–cell fusion assay, panel of primary HIV-1 Envs.
Another series has as its system SIV239 pseudovirus. The following applies: 48 h.
A further series has as its system RSV pseudovirus. The following applies: 48 h.
The subject of a further series is HIV-1NL4-3 Env. The class given is cell-based. To be noted: Table 2; HIV-1NL4-3 Env-mediated cell–cell fusion; triplicate, repeated three times; read-out: IC50 ± SD, Env cell fusion.
Series [1] relates to gp41 HR1-derived peptides (N42, N36, and N38). The experiment in a line: Size-exclusion chromatography of EK1 with gp41 HR1-derived peptides. Format: binding, HIV-1. The following applies: molar ratio 1:1, 0.2 mM, 0.05M sodium phosphate pH 7.2, 37°C 30 min; Superdex-75. The procedure:
The binding between EK1 peptide and a target mimic peptide derived from the HR1 sequence of gp41 was analysed by size-exclusion chromatography. In brief, EK1 was mixed with N42, N36 or N38 (molar ratio of 1:1) in 0.05M sodium phosphate (pH 7.2) at a final concentration of 0.2 mM, and then incubated at 37°C for 30 min. The mixture was applied to the Superdex-75 10/300 GL (GE Healthcare, Piscataway, NJ, USA) equilibrated with 50 mM sodium phosphate and eluted at 0.8 ml/min, and fractions were monitored at 214 nm.
(In gel filtration, larger molecules generally elute earlier.)

Another series concerns HIV-2ROD. To be noted: read-out: IC50, inhibition of HIV-2ROD infection; Fig 2A; replication-competent virus, TZM-bl cells, 48 h; mean IC50, repeated three times.
For the next series, the system named is HIV-2ST. The following applies: read-out: IC50, inhibition of HIV-2ST infection; Fig 2B; replication-competent virus, TZM-bl cells, 48 h; mean IC50, repeated three times.
For a further series, the system named is SARS-CoV-2. The experiment in a line: Inhibition of SARS-CoV-2 by HIV-1 fusion inhibitors (Table S1). The class given is cell-based. The following applies: at a concentration as high as 25 or 50 μM (Table S1).
The test system of a further series is HIV-1. The experiment in a line: Inhibition of HIV-1 by HIV-1 fusion inhibitors (Table S1). The class given is cell-based. The following applies: Table S1, in words only.
The mark [2] stands for this setting: HIV-1 Env 246_F3_C10_2, subtype A/C, triplicate, repeated three times, read-out: Cell fusion (IC50±SD).
Setting [3] is: HIV-1 Env 398-F1_F6_20, subtype A, triplicate, repeated three times, read-out: Cell fusion (IC50±SD).
The mark [4] stands for this setting: HIV-1 Env BJOX002000.03.2, subtype B/C, triplicate, repeated three times, read-out: Cell fusion (IC50±SD).
The mark [5] stands for this setting: HIV-1 Env CE1176_A3, subtype C, triplicate, repeated three times, read-out: Cell fusion (IC50±SD).
The mark [6] stands for this setting: HIV-1 Env CE703010217_B6, subtype C, triplicate, repeated three times, read-out: Cell fusion (IC50±SD).
The mark [7] stands for this setting: HIV-1 Env CH119.10, subtype B/C, triplicate, repeated three times, read-out: Cell fusion (IC50±SD).
The mark [8] stands for this setting: HIV-1 Env CNE8, subtype A/E, triplicate, repeated three times, read-out: Cell fusion (IC50±SD).
[9] abbreviates: HIV-1 Env CNE55, subtype A/E, triplicate, repeated three times, read-out: Cell fusion (IC50±SD).
[10] abbreviates: HIV-1 Env HIV_25710-2.43, subtype C, triplicate, repeated three times, read-out: Cell fusion (IC50±SD).
Setting [11] is: HIV-1 Env SF162, subtype B, triplicate, repeated three times, read-out: Cell fusion (IC50±SD).
The mark [12] stands for this setting: HIV-1 Env TRO.11, subtype B, triplicate, repeated three times, read-out: Cell fusion (IC50±SD).
The mark [13] stands for this setting: HIV-1 Env X1632-S2-B10, subtype G, triplicate, repeated three times, read-out: Cell fusion (IC50±SD).
Where [14] appears, read: HIV-1 Env X2278_C2_B6, subtype B, triplicate, repeated three times, read-out: Cell fusion (IC50±SD).
Where [15] appears, read: Mean over 14 primary HIV-1 Envs of Table 1, read-out: Cell fusion, mean IC50 over the panel.

The source of these data is PMC8812798 (Emerging Microbes & Infections, 2021).

Like-named read-outs stand apart in the source and are kept apart here. Where a SMILES comes first, the peptide text is derived from it. The star is where a group is joined. Succinyl(4-O-cholesteryl) = CC(C)CCC[C@@H](C)[C@H]1CC[C@H]2[C@@H]3CC=C4C[C@@H](OC(=O)CCC(=O)*)CC[C@]4(C)[C@H]3CC[C@]12C

In general, IC50 refers to the concentration that inhibits the measured activity by half.

On to `CC[C@H](C)[C@H](NC(=O)[C@H](C)NC(=O)[C@H](CCC(=O)O)NC(=O)[C@H](CCC(=O)O)NC(=O)[C@H](CC(C)C)NC(=O)[C@H](CCCCN)NC(=O)[C@H](CCCCN)NC(=O)[C@H](CCSC)NC(=O)[C@H](CCC(=O)O)NC(=O)[C@H](Cc1ccc(O)cc1)NC(=O)[C@H](CCC(=O)O)NC(=O)[C@H](CC(C)C)NC(=O)[C@H](CC(=O)O)NC(=O)[C@H](CC(C)C)NC(=O)[C@H](Cc1ccccc1)NC(=O)[C@@H](NC(=O)[C@@H](NC(=O)[C@H](CC(N)=O)NC(=O)[C@@H](NC(=O)[C@H](CCC(N)=O)NC(=O)[C@H](CC(=O)O)NC(=O)[C@H](CC(C)C)NC(=O)[C@H](CO)NC(C)=O)[C@@H](C)CC)C(C)C)[C@@H](C)O)C(=O)N[C@@H](CCCCN)C(=O)N[C@@H](CCCCN)C(=O)N[C@@H](CC(C)C)C(=O)N[C@@H](CCC(=O)O)C(=O)N[C@@H](CCC(=O)O)C(=O)N[C@@H](CO)C(=O)N[C@@H](Cc1ccc(O)cc1)C(=O)N[C@H](C(=O)N[C@@H](CC(=O)O)C(=O)N[C@@H](CC(C)C)C(=O)N[C@@H](CCCCN)C(=O)N[C@@H](CCC(=O)O)C(=O)N[C@@H](CC(C)C)C(=O)N[C@@H](CCCCNC(=O)CCC(=O)O[C@H]1CC[C@@]2(C)C(=CC[C@H]3[C@@H]4CC[C@H]([C@H](C)CCCC(C)C)[C@@]4(C)CC[C@@H]32)C1)C(N)=O)[C@@H](C)CC` [EK1V1] (Ac-SLDQINVTFLDLEYEMKKLEEAIKKLEESYIDLKELK(Succinyl(4-O-cholesteryl))-NH2; N-terminus and C-terminus assumed), for which the half-inhibitory concentration (IC50) in the series on H7N9 pseudovirus is greater than 25 µM; in the series on H5N1 pseudovirus it was greater than 25 µM; with SIVPBJ pseudovirus it was 310 nM; with HIV-1NL4-3 pseudovirus (1NL4-3 pseudovirus, 48 h) it was 39.8 nM; in the series on HIV-1NL4-3 pseudovirus (Table 3, […], mean ± SD, triplicate, repeated three times), 40 ± 2 nM; in the series on primary HIV-1 Envs (setting [2]), 50 ± 10 nM. Also, the IC50 was 170 ± 10 nM in the series with primary HIV-1 Envs (setting [3]); 70 ± 10 nM in the series on primary HIV-1 Envs (setting [4]); 350 ± 100 nM in the series on primary HIV-1 Envs (setting [5]); 40 ± 10 nM in the series with primary HIV-1 Envs (setting [6]); 20 ± 4 nM in the series on primary HIV-1 Envs (setting [7]); 490 ± 90 nM in the series with primary HIV-1 Envs (setting [8]). Also, the IC50 in the series on primary HIV-1 Envs (setting [9]) came to 130 ± 30 nM; in the series on primary HIV-1 Envs (setting [10]), 170 ± 30 nM; in the series with primary HIV-1 Envs (setting [11]), 50 ± 10 nM; in the series with primary HIV-1 Envs (setting [12]), 680 ± 170 nM; in the series with primary HIV-1 Envs (setting [13]), 40 ± 10 nM; in the series with primary HIV-1 Envs (setting [14]), 50 ± 4 nM. In addition, the IC50 in the series with primary HIV-1 Envs (setting [15]) was 170 nM; in the series with SIV239 pseudovirus, 1430 nM; in the series with RSV pseudovirus, greater than 25 µM. The “Cytotoxicity on TZM-bl cells” value in the series with TZM-bl cells is “none of them at a concentration of 10 or 25 μM showed significant cytotoxic effects”. Moreover, the “Cytotoxicity on HEK293T cells” value in the series with HEK293T cells was “none of them at a concentration of 10 or 25 μM showed significant cytotoxic effects”. Also, the n-fold in the series with HIV-1NL4-3 pseudovirus is 1.
In the case of `CC[C@H](C)[C@H](NC(=O)[C@H](C)NC(=O)[C@H](CCC(=O)O)NC(=O)[C@H](CCC(=O)O)NC(=O)[C@H](CC(C)C)NC(=O)[C@H](CCCCN)NC(=O)[C@H](CCCCN)NC(=O)[C@H](CCSC)NC(=O)[C@H](CCC(=O)O)NC(=O)[C@H](Cc1ccc(O)cc1)NC(=O)[C@H](CCC(=O)O)NC(=O)[C@H](CC(C)C)NC(=O)[C@H](CC(=O)O)NC(=O)[C@H](CC(C)C)NC(=O)[C@H](Cc1ccccc1)NC(=O)[C@@H](NC(=O)[C@@H](NC(=O)[C@H](CC(N)=O)NC(=O)[C@@H](NC(=O)[C@H](CCC(N)=O)NC(=O)[C@H](CC(=O)O)NC(=O)[C@H](CC(C)C)NC(=O)[C@H](CO)NC(C)=O)[C@@H](C)CC)C(C)C)[C@@H](C)O)C(=O)N[C@@H](CCCCN)C(=O)N[C@@H](CCCCN)C(=O)N[C@@H](CC(C)C)C(=O)N[C@@H](CCC(=O)O)C(=O)N[C@@H](CCC(=O)O)C(=O)N[C@@H](CO)C(=O)N[C@@H](Cc1ccc(O)cc1)C(=O)N[C@H](C(=O)N[C@@H](CC(=O)O)C(=O)N[C@@H](CC(C)C)C(=O)N[C@@H](CCCCN)C(=O)N[C@@H](CCC(=O)O)C(=O)N[C@@H](CC(C)C)C(N)=O)[C@@H](C)CC` [EK1], the IC50 in the series with H7N9 pseudovirus is greater than 25 µM; in the series on H5N1 pseudovirus it was greater than 25 µM; in the series on SIVPBJ pseudovirus it was greater than 12500 nM; in the series on HIV-1NL4-3 Env, greater than 5 µM; with primary HIV-1 Envs (setting [2]), greater than 5000 nM; in the series with primary HIV-1 Envs (setting [3]), greater than 5000 nM. In addition, the IC50 in the series with primary HIV-1 Envs (setting [4]), in the series on primary HIV-1 Envs (setting [5]), in the series on primary HIV-1 Envs (setting [6]), in the series with primary HIV-1 Envs (setting [7]), with primary HIV-1 Envs (setting [8]) and in the series with primary HIV-1 Envs (setting [9]) was greater than 5000 nM each time. Moreover, the IC50 was greater than 5000 nM in the series with primary HIV-1 Envs (setting [10]); greater than 5000 nM with primary HIV-1 Envs (HIV-1 Env JRFL, subtype B, triplicate, repeated three times, read-out: Cell fusion (IC50±SD)); greater than 5000 nM in the series with primary HIV-1 Envs (setting [11]); greater than 5000 nM in the series with primary HIV-1 Envs (setting [12]); greater than 5000 nM with primary HIV-1 Envs (setting [13]); greater than 5000 nM in the series on primary HIV-1 Envs (setting [14]). Besides, the IC50 in the series on primary HIV-1 Envs (setting [15]) is greater than 5000 nM; in the series with HIV-2ROD, greater than 12.5 µM; with SIV239 pseudovirus, greater than 12500 nM; in the series on RSV pseudovirus, greater than 25 µM; with HIV-2ST, greater than 12.5 µM. For the same molecule, the “Cytotoxicity on TZM-bl cells” value in the series with TZM-bl cells is reported as “none of them at a concentration of 10 or 25 μM showed significant cytotoxic effects”. The “Cytotoxicity on HEK293T cells” value in the series on HEK293T cells is given as “none of them at a concentration of 10 or 25 μM showed significant cytotoxic effects”. Besides, in series [1], the “Complex formation with gp41 HR1-derived peptides N42, N36, N38 by size-exclusion chromatography” value is given as “could form peptide complexes”.
Regarding Enfuvirtide, in the series with SARS-CoV-2, the “Inhibitory activity against SARS-CoV-2” value is listed as “none was found to have inhibitory activity”. In addition, the IC50 with SIVPBJ pseudovirus came out at 480 nM; in the series with SIV239 pseudovirus it was 390 nM. The “Inhibition of HIV-1” value in the series on HIV-1 is “potently inhibited HIV-1”.
Take “SLDQINVTFLDLEYEMKKLEEAIKKLEESYIDLKEL-GSGSG-PEG4-C(Chol) [EK1C4]”: the “Cytotoxicity on TZM-bl cells” value in the series on TZM-bl cells is recorded as “none of them at a concentration of 10 or 25 μM showed significant cytotoxic effects”. In the series on HEK293T cells, the “Cytotoxicity on HEK293T cells” value is given as “none of them at a concentration of 10 or 25 μM showed significant cytotoxic effects”.
Regarding albuvirtide, the “Inhibitory activity against SARS-CoV-2” value with SARS-CoV-2 is on record as “none was found to have inhibitory activity”. Moreover, the “Inhibition of HIV-1” value in the series on HIV-1 is “potently inhibited HIV-1”.
Take sifuvirtide: the “Inhibitory activity against SARS-CoV-2” value with SARS-CoV-2 is reported as “none was found to have inhibitory activity”. Moreover, the “Inhibition of HIV-1” value in the series on HIV-1 is “potently inhibited HIV-1”.
